{
  "source": "patent US10519099B2",
  "about": "“Cystobactamides” (priority 2014, dated 2019)",
  "key": {"[1]": {"test_system": "Enterobacter cloacae DSM-30054", "assay": "MIC microdilution, Enterobacter cloacae DSM-30054", "type": "cell-based", "settings": "Enterobacter cloacae, DSM30054, read-out: MIC Enterobacter cloacae DSM-30054", "protocol": "Dr. P. Heisig, Pharmaceutical Biology and Microbiology, University of Hamburg.\nOvernight cultures were diluted in the appropriate growth medium to achieve an inoculum of 10^4-10^6 cfu/mL. […] Cystobactamides and reference drugs were added directly to the cultures in sterile 96-well plates as duplicates and serial dilutions were prepared. Microorganisms were grown on a microplate shaker (750 rpm, 30-37° C., 18-48 h), except S. pneumonia, which was grown at non-shaking conditions (37° C., 5% CO2, 18 h). Growth inhibition was assessed by visual inspection and the MIC was defined as the lowest concentration of compound that inhibited visible growth."}, "P. aeruginosa gyrase": {"molecular_target": "T1, P. aeruginosa gyrase (Pseudomonas aeruginosa, UniProt P48372+Q9I7C2)", "T1 construct": "purchased Inspiralis, Norwich, UK", "T1 sequence (Q9I7C2 whole entry)": "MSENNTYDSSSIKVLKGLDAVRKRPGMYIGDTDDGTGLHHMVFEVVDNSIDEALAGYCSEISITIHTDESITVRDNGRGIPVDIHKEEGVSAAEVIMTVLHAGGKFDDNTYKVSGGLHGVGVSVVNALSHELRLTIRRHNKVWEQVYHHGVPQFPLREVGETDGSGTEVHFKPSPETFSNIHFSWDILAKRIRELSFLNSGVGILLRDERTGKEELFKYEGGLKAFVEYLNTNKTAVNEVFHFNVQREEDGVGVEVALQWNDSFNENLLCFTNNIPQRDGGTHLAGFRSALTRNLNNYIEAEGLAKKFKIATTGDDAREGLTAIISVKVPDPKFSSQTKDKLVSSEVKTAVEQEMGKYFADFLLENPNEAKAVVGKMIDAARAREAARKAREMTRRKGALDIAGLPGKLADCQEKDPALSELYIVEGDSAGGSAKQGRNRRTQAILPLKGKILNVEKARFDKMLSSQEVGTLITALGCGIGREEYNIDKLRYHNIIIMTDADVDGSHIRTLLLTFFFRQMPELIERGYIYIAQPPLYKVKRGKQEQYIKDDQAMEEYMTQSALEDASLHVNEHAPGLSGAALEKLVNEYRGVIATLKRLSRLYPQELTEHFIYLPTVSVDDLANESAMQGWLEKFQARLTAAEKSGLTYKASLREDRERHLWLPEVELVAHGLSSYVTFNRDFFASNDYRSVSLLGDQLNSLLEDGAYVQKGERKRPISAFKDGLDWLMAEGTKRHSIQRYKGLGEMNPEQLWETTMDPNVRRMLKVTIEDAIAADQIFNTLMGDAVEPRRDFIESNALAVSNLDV", "T1 sequence (P48372 whole entry)": "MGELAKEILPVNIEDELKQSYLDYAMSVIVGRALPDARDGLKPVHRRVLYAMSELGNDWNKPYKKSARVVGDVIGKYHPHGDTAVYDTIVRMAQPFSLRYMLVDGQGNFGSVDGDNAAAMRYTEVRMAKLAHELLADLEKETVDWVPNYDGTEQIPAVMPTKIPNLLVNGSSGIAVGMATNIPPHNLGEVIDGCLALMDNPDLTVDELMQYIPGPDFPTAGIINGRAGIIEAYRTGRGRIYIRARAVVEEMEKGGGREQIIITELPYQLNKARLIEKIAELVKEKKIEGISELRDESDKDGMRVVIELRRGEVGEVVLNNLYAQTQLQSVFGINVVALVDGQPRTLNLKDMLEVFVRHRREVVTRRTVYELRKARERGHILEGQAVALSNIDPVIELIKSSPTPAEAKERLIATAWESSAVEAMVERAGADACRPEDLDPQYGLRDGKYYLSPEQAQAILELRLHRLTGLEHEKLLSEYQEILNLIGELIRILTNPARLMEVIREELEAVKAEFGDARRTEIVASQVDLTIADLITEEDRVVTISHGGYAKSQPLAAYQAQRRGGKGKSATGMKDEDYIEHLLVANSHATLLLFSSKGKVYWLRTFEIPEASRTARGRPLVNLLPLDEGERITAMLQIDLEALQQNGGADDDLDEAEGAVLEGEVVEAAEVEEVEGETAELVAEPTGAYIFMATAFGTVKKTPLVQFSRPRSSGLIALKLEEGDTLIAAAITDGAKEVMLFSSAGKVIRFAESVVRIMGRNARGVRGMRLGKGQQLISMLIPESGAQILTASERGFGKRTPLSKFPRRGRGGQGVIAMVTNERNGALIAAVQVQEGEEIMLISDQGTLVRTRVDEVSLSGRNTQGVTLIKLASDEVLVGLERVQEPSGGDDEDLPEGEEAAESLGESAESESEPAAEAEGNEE", "assay": "P. aeruginosa gyrase DNA supercoiling assay", "type": "biochemical", "settings": "read-out: IC50 Pa gyrase (sc)", "protocol": "To test the anti-gyrase activity of cystobactamides, commercial E. coli and P. aeruginosa gyrase supercoiling kits (Inspiralis, Norwich, UK) were used. For standard reactions 0.5 μg relaxed plasmid were mixed with 1 unit gyrase in 1× reaction buffer (see kit manual) and incubated for 30 min at 37° C. The reactions were quenched by the addition of DNA gel loading buffer containing 10% (w/v) SDS. The samples were separated on 1% (w/v) agarose gels and DNA was visualized using EtBr. All natural products stock solutions and dilutions were prepared in 100% DMSO and added to the supercoiling reactions giving a final DMSO concentration of 2% (v/v)."}},
  "data": [
    {"smiles": "COC(C(N)=O)C(NC(=O)c1ccc(NC(=O)c2ccc([N+](=O)[O-])cc2)cc1)C(=O)Nc1ccc(C(=O)Nc2ccc(C(=O)Nc3ccc(C(=O)O)cc3OC(C)C)c(O)c2OC(C)C)cc1", "note": "(centres unmarked) [Cys 919-2]", "values": [
      {"measurement": "MIC", "setting": "[1]", "result": "> 64", "unit": "µg/mL"},
      {"measurement": "IC50", "setting": "P. aeruginosa gyrase", "result": 340, "unit": "nM"}
    ]}
  ]
}
